Literature values, collected in patent US20060147527A1, “Controlled release preparations comprising tramadol and topiramate” (CILAG AG, priority 2002, published 2006).

System: Chung model of post-nerve constriction injury
Details: each drug alone

| SMILES | maximal effect reached as the dose is escalated [% MPE] |
| --- | --- |
| COc1cccc(C2(O)CCCCC2CN(C)C)c1 (single isomer, unassigned) [tramadol, (1R,2R or 1S,2S)-2-[(dimethylamino)methyl]-1-(3-methoxyphenyl)-cyclohexanol] | 100 |
| CC1(C)O[C@@H]2[C@@H](CO[C@@]3(COS(N)(=O)=O)OC(C)(C)O[C@@H]23)O1 [topiramate, 2,3:4,5-bis-O-(1-methylethylidene)-β-D-fructopyranose sulfamate] | 100 |
